In patent US12275721B2, “Indazole carboxamides as kinase inhibitors” (BRISTOL-MYERS SQUIBB COMPANY, priority 2019, dated 2025):

Assays:
[1] = tested on: MLKL phosphorylation in HT29-L23 human colorectal adenocarcinoma cells; test: MLKL Phosphorylation High-Content Assay; format: cell-based; settings: Homo sapiens, necroptosis induced with TNFα, SMAC mimetic and Z-VAD, 6 h, read-out: pMLKL (IC50)
Protocol: MLKL Phosphorylation High-Content Assay
HT29-L23 human colorectal adenocarcinoma cells were maintained in RPMI 1640 medium containing 10% heat-inactivated FBS, 1% Penicillin-Streptomycin and 10 mM HEPES. Cells were seeded at 2,000 cells/well in 384 well tissue culture-treated microplates (Greiner #781090-3B) and incubated at 37° C. (5% CO2/95% O2) for 2 d. On the day of the assay, the cells were treated with test compounds at final concentrations of 6.25 to 0.106 μM for 30 min at 37° C. (5% CO2/95% O2). Necroptopsis was induced using a mixture of human TNFα (35 ng/mL) (Peprotech #300-01A), SMAC mimetic (from US 2015/0322111 A1) (700 nM) and Z-VAD (140 nM) (BD pharmingen #51-6936). Following 6 h incubation at 37° C. (5% CO2/95% O2), the cells were fixed with 4% formaldehyde (ACROS 11969-0010) for 15 min at rt, then permeabilized with phosphate buffered saline (PBS) containing 0.2% Triton-X-100 for 10 min. MLKL phosphorylation was detected using anti-MLKL (phospho S358) antibody (Abcam #ab187091) (1:1000 dilution in Blocking Buffer [PBS supplemented with 0.1% BSA]) with ON incubation at 4° C. After washing three times in PBS, goat anti-rabbit Alexa-488 (1:1000 dilution) (Life Technologies, A1 1008) and Hoechst 33342 (Life Technologies, H3570) (1:2000 dilution) in Blocking Buffer were added for 1 h at rt. Following another three cycles of washes in PBS, the microplates were sealed, and cellular images were acquired in the Cellomics ArrayScan VTI high-content imager equipped with an X1 camera. Fluorescent images were taken using a 10× objective and the 386-23 BGRFRN_BGRFRN and 485-20 BGRFRN_BGRFRN filter sets, for nuclei and MLKL phosphorylation, respectively. The image sets were analyzed using the Compartmental Analysis Bioapplication software (Cellomics). The level of MLKL phosphorylation was quantified as MEAN_CircRingAvglntenRatio. The maximal inhibitory response was defined by the activity induced by Necls (CAS #: 852391-15-2, 6.25 μm). The IC50 value was defined as the concentration of compound that produces 50% of the maximal inhibition. The data were fitted using the 4-parameter logistic equation to calculate the IC50 and Ymax values.

[2] = biological target: T1, His-GST-TVMV-hRIPK1(1-324) (Homo sapiens, UniProt Q13546); test: RIPK1 HTRF Binding Assay; settings: HTRF probe displacement, 1 h at rt
T1 construct: 1 nM His-GST-TVMV-hRIPK1(1-324) in FRET Buffer; made in house; host or cells: Spodoptera frugiperda (Sf9) insect cells, baculovirus (Bac-to-Bac)
T1 sequence (Q13546 1-324): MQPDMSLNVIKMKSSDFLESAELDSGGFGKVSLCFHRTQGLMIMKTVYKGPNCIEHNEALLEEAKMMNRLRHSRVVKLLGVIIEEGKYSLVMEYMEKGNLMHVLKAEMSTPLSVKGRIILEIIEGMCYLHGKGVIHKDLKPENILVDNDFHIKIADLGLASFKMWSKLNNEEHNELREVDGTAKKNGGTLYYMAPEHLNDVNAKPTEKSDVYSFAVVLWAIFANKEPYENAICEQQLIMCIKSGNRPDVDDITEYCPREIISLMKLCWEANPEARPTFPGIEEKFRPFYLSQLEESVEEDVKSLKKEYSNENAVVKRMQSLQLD
Protocol: A solution was prepared containing 0.2 nM Anti GST-Tb (Cisbio, 61GSTTLB), 90.6 nM probe and 1 nM His-GST-TVMV-hRIPK1(1-324) in FRET Buffer (20 mM HEPES, 10 mM MgCl2, 0.015% Brij-35, 4 mM DTT, 0.05 mg/mL BSA). Using Formulatrix Tempest, the detection antibody/enzyme/probe solution ([…]) was dispensed into wells of a 1536 plate (Black Low Binding Polystyrene 1536 Plate (Corning, 3724)) containing 10 nL of compounds of interest at appropriate concentration in DMSO. The plate was incubated at rt for 1 h. FRET was measured using the EnVision plate reader (Excitation: 340 nm, Emission: 520 nm/[…]). Total signal (0% inhibition) was calculated from wells containing 10 nL DMSO only.
Cloning and Baculovirus Expression of RIPK1 Construct
The coding region of human RIPK1(1-324) flanked by NdeI site at 5′ end and stop codon TGA and XhoI site at 3′ end was codon optimized and gene synthesized at GenScript USA Inc. (Piscataway, NJ) and subcloned into a modified pFastBac1 vector (Invitrogen, Carlsbad, CA) with N-terminal His-GST-TVMV tag, to generate His-GST TVMV-hRIPK1(1-324)-pFB. The fidelity of the synthetic fragment was confirmed by sequencing. Baculovirus was generated for the construct using the Bac-to-Bac baculovirus expression system (Invitrogen) according to the manufacturer's protocol. Briefly, recombinant bacmid was isolated from transformed DH10Bac E. coli competent cells 20 (Invitrogen) and used to transfect Spodoptera frugiperda (Sf9) insect cells (Invitrogen). Baculovirus was harvested 72 hours post transfection and a virus stock was prepared by infecting fresh Sf9 cells at a 1/1000 (v/v) ratio for 66 hours. For large scale protein production, Sf9 cells (Expression System, Davis, CA) grown in ESF921 insect medium (Expression System) at 2×10^6 cells/ml were infected with virus stock at a 1/100 (v/v) ratio for 66 hours. The production was carried out either at a 10 L scale in a 22 L cellbag (GE Healthcare Bioscience, Pittsburgh, PA) or at a 20 L scale in a 50 L cellbag using WAVE-Bioreactor System 20/50 (GE Healthcare Bioscience). The infected cells were harvested by centrifugation at 2000 rpm for 20 min at 4° C. in a SORVALL® RC12BP centrifuge. The cell pellets was stored at −70° C. before protein was purified.
Purification of His-GST-TVMV-hRIPK1(1-324)
RIPK1 containing cell paste was resuspended in 50 mM Tris pH 7.5, 150 mM NaCl, 10 mM imidazole, 5% glycerol, 5 mM MgSO4, 1 mM TCEP, 25 U/ml Benzonase, and Complete Protease Inhibitor tablets (1/50 ml, Roche Diagnostics, Indianapolis, IN). The cells were lysed by nitrogen cavitation using an unstirred pressure vessel @ 525 PSI (Parr Instrument Company, Moline, IL). The suspension was clarified by centrifugation at 136,000×g for 40 min, at 4° C. The lysate was decanted from the pellet and passed through a 5 ml NiNTA Superflow cartridge (Qiagen, Valencia, CA) using an AKTA Pure (GE Healthcare). Column was eluted with 10 CV linear gradient into 50 mM Tris 7.5, 150 mM NaCl, 500 mM imidazole, 5% glycerol, 1 mM TCEP. Peak fractions were pooled and loaded directly onto 5 ml GSTrap 4B column (GE Healthcare). Column was washed with 50 mM Tris 7.0, 150 mM NaCl, […], 1 mM DTT and eluted in 10 CV linear gradient into 50 mM Tris 8.0, 150 mM NaCl, 20 mM reduced glutathione, 50% glycerol, 1 mM DTT. Fractions identified by SDS-PAGE as containing RIPK1 were pooled and concentrated using 30 kDa MWCO spin concentrators (Amicon Ultra-15, Millipore, Billerica, MA) and loaded onto a HiLoad 26/600 Superdex 200 column (GE Healthcare) equilibrated in 25 mM Tris 7.5, 150 mM NaCl, 2 mM TCEP, […]. The RTPK1 protein eluted as a dimer off the SEC column. The yield was ˜8 mg/L with a purity […] as determined by Coomassie stain SDS-PAGE gel analysis. […] Protein was aliquoted and stored at −80° C. Using these assays, the IC50 values of the following compounds were determined.

SMILES | IC50 [1] | IC50 [2]
CNC(=O)c1n[nH]c2cc(-c3cc(C(=O)NC(C)CCc4ccccc4)n(C)n3)ccc12 (racemic) [Example 36, N-methyl-6-(1-methyl-5-((4-phenylbutan-2-yl)carbamoyl)-1H-pyrazol-3-yl)-1H-indazole-3-carboxamide] | 600 nM | –
CNC(=O)c1n[nH]c2cc(-c3csc(C(=O)NCc4cc(OC(F)(F)F)ccc4F)c3)ccc12 [Example 1, 6-(5-((2-fluoro-5-(trifluoromethoxy)benzyl)carbamoyl)thiophen-3-yl)-N-methyl-1H-indazole-3-carboxamide] | 21 nM | 6.8 nM
CNC(=O)c1n[nH]c2cc(-c3csc(C(=O)NCCC(C)c4ccccc4)c3)ccc12 (stereo not shown) [Example 2, N-methyl-6-(5-((3-phenylbutyl)carbamoyl)thiophen-3-yl)-1H-indazole-3-carboxamide] | 8.2 nM | 6 nM
CNC(=O)c1n[nH]c2cc(-c3csc(C(=O)NCC[C@@H](O)c4ccc(Cl)cc4)c3)ccc12 [Example 3, (R)-6-(5-((3-(4-chlorophenyl)-3-hydroxypropyl)carbamoyl)thiophen-3-yl)-N-methyl-1H-indazole-3-carboxamide] | 200 nM | 47 nM
CNC(=O)c1n[nH]c2cc(-c3csc(C(=O)NCC[C@H](O)c4ccc(Cl)cc4)c3)ccc12 [Example 4, (S)-6-(5-((3-(4-chlorophenyl)-3-hydroxypropyl)carbamoyl)thiophen-3-yl)-N-methyl-1H-indazole-3-carboxamide] | 230 nM | 43 nM
CC(C)NC(=O)c1n[nH]c2cc(-c3csc(C(=O)NCC[C@@H](O)c4ccc(Cl)cc4)c3)ccc12 [Example 5, (R)-6-(5-((3-(4-chlorophenyl)-3-hydroxypropyl)carbamoyl)thiophen-3-yl)-N-isopropyl-1H-indazole-3-carboxamide] | 1100 nM | 800 nM
CNC(=O)c1n[nH]c2cc(-c3ccc(C(=O)NCc4cc(OC(F)(F)F)ccc4F)s3)ccc12 [Example 6, 6-(5-((2-fluoro-5-(trifluoromethoxy)benzyl)carbamoyl)thiophen-2-yl)-N-methyl-1H-indazole-3-carboxamide] | 56 nM | 31 nM
CNC(=O)c1n[nH]c2cc(-c3ccc(C(=O)NCCC(C)c4ccccc4)s3)ccc12 (stereo not shown) [Example 7, N-methyl-6-(5-((3-phenylbutyl)carbamoyl)thiophen-2-yl)-1H-indazole-3-carboxamide] | 3.9 nM | 17 nM
CNC(=O)c1n[nH]c2cc(-c3ccc(C(=O)NCC[C@H](O)c4ccc(Cl)cc4)s3)ccc12 [Example 8, (S)-6-(5-((3-(4-chlorophenyl)-3-hydroxypropyl)carbamoyl)thiophen-2-yl)-N-methyl-1H-indazole-3-carboxamide] | 6300 nM | 220 nM
CC(C)NC(=O)c1n[nH]c2cc(-c3ccc(C(=O)NCC[C@H](O)c4ccc(Cl)cc4)s3)ccc12 [Example 9, (S)-6-(5-((3-(4-chlorophenyl)-3-hydroxypropyl)carbamoyl)thiophen-2-yl)-N-isopropyl-1H-indazole-3-carboxamide] | 500 nM | –
CNC(=O)c1n[nH]c2cc(-c3cc(C)c(C(=O)NCc4cc(OC(F)(F)F)ccc4F)s3)ccc12 [Example 10, 6-(5-((2-fluoro-5-(trifluoromethoxy)benzyl)carbamoyl)-4-methylthiophen-2-yl)-N-methyl-1H-indazole-3-carboxamide] | 1 nM | 2 nM
CNC(=O)c1n[nH]c2cc(-c3cc(C)c(C(=O)NCCC(C)c4ccccc4)s3)ccc12 (stereo not shown) [Example 11, N-methyl-6-(4-methyl-5-((3-phenylbutyl)carbamoyl)thiophen-2-yl)-1H-indazole-3-carboxamide] | 2 nM | 1.8 nM
CNC(=O)c1n[nH]c2cc(-c3cc(C)c(C(=O)NCC[C@@H](O)c4ccc(Cl)cc4)s3)ccc12 [Example 12, (R)-6-(5-((3-(4-chlorophenyl)-3-hydroxypropyl)carbamoyl)-4-methylthiophen-2-yl)-N-methyl-1H-indazole-3-carboxamide] | 11 nM | 3.8 nM
CNC(=O)c1n[nH]c2cc(-c3nc(C)c(C(=O)NCc4cc(OC(F)(F)F)ccc4F)s3)ccc12 [Example 14, N-(2-fluoro-5-(trifluoromethoxy)benzyl)-4-methyl-2-(3-(methylcarbamoyl)-1H-indazol-6-yl)thiazole-5-carboxamide] | 8 nM | 7 nM
CNC(=O)c1n[nH]c2cc(-c3nc(C)c(C(=O)NCCC(C)c4ccccc4)s3)ccc12 (stereo not shown) [Example 15, 4-methyl-2-(3-(methylcarbamoyl)-1H-indazol-6-yl)-N-(3-phenylbutyl)thiazole-5-carboxamide] | 44 nM | 8.3 nM
